In ChEMBL document CHEMBL3885861, “Open TG-GATES”:

Species: Rattus norvegicus
Test: Open TG-GATES - Regimen: Daily Repeat
Format: toxicity, organism-based, Sprague-Dawley
Set-up: regimen Daily Repeat, gender Male, age 6 weeks
Details: in vivo, po, route gavage; for APTT / Bas / Eos / Fbg / Hb / Ht / Lym / MCH / MCHC / MCV / Mono / Neu / PT / Plat / RBC / Ret / WBC: tissue Blood; for KIDNEY_L / KIDNEY_R / KIDNEY_TOTAL: tissue Kidney; for LIVER: tissue Liver; for A/G / ALP / ALT / AST / BUN / CRE / Ca / Cl / DBIL / GLC / IP / K / LDH / Na / PL / RALB / TBIL / TC / TG / TP / gamma-GTP: tissue Plasma
[1] = 0 mg/kg, 72 h, dose level Control, time 3 day
[2] = 0 mg/kg, […], dose level Control, time 7 day
[3] = 0 mg/kg, […], dose level Control, time 14 day
[4] = 0 mg/kg, […], dose level Control, time 28 day
[5] = 30 mg/kg, 72 h, dose level Low, time 3 day
[6] = 30 mg/kg, […], dose level Low, time 7 day
[7] = 30 mg/kg, […], dose level Low, time 14 day
[8] = 30 mg/kg, […], dose level Low, time 28 day

SMILES: CCc1cc(C(N)=S)ccn1 [ETHIONAMIDE]
- TERMINAL_BW [1]: 250.2 g
- APTT [1]: 17.3 s
- Bas [1]: 0%
- Eos [1]: 1%
- Fbg [1]: 262 mg/dL
- Hb [1]: 13.2 g/dL
- Ht [1]: 38.9%
- Lym [1]: 73%
- MCH [1]: 22 pg
- MCHC [1]: 33.9%
- MCV [1]: 64.7 fL
- Mono [1]: 7.6%
- Neu [1]: 18.6%
- PT [1]: 11.9 s
- Plat [1]: 128 x10_4/uL
- RBC [1]: 601.2 x10_4/ul
- Ret [1]: 12.2%
- WBC [1]: 130.2 x10_2/uL
- KIDNEY_L [1]: 1.1 g
- KIDNEY_R [1]: 1.2 g
- KIDNEY_TOTAL [1]: 2.3 g
- LIVER [1]: 12.8 g
- A/G [1]: 1.6
- ALP [1]: 851.8 IU/L
- ALT [1]: 39 IU/L
- AST [1]: 62.8 IU/L
- BUN [1]: 18.2 mg/dL
- CRE [1]: 0.5 mg/dL
- Ca [1]: 11 mg/dL
- Cl [1]: 104.6 meq/L
- DBIL [1]: 0.018 mg/dL
- GLC [1]: 188.6 mg/dL
- IP [1]: 7.3 mg/dL
- K [1]: 4.6 meq/L
- LDH [1]: 80.2 IU/L
- Na [1]: 141 meq/L
- PL [1]: 153 mg/dL
- RALB [1]: 3.6 g/dL
- TBIL [1]: 0.3 mg/dL
- TC [1]: 80.6 mg/dL
- TG [1]: 99 mg/dL
- TP [1]: 5.8 g/dL
- gamma-GTP [1]: 2 IU/L
- TERMINAL_BW [2]: 270.2 g
- TERMINAL_BW [3]: 326.8 g
- TERMINAL_BW [4]: 416.8 g
- APTT [2]: 17.5 s
- Bas [2]: 0%
- Eos [2]: 1%
- Fbg [2]: 218.4 mg/dL
- Hb [2]: 14.1 g/dL
- Ht [2]: 41.5%
- Lym [2]: 78%
- MCH [2]: 21.4 pg
- MCHC [2]: 34%
- MCV [2]: 62.9 fL
- Mono [2]: 8%
- Neu [2]: 13%
- PT [2]: 11.5 s
- Plat [2]: 119.6 x10_4/uL
- RBC [2]: 661.6 x10_4/ul
- Ret [2]: 3.8%
- WBC [2]: 107.3 x10_2/uL
- APTT [3]: 18.7 s
- Bas [3]: 0%
- Eos [3]: 1%
- Fbg [3]: 215.4 mg/dL
- Hb [3]: 14.8 g/dL
- Ht [3]: 43.6%
- Lym [3]: 79.6%
- MCH [3]: 20.5 pg
- MCHC [3]: 33.8%
- MCV [3]: 60.8 fL
- Mono [3]: 5.4%
- Neu [3]: 14.2%
- PT [3]: 12 s
- Plat [3]: 120.6 x10_4/uL
- RBC [3]: 718.8 x10_4/ul
- Ret [3]: 4%
- WBC [3]: 122.9 x10_2/uL
- APTT [4]: 18.6 s
- Bas [4]: 0%
- Eos [4]: 1.6%
- Fbg [4]: 235.8 mg/dL
- Hb [4]: 15.6 g/dL
- Ht [4]: 46%
- Lym [4]: 78.8%
- MCH [4]: 19.6 pg
- MCHC [4]: 34%
- MCV [4]: 57.7 fL
- Mono [4]: 6.6%
- Neu [4]: 13.2%
- PT [4]: 11.9 s
- Plat [4]: 116.1 x10_4/uL
- RBC [4]: 796.2 x10_4/ul
- Ret [4]: 4.8%
- WBC [4]: 122.5 x10_2/uL
- KIDNEY_L [2]: 1.2 g
- KIDNEY_R [2]: 1.3 g
- KIDNEY_TOTAL [2]: 2.5 g
- KIDNEY_L [3]: 1.3 g
- KIDNEY_R [3]: 1.3 g
- KIDNEY_TOTAL [3]: 2.7 g
- KIDNEY_L [4]: 1.6 g
- KIDNEY_R [4]: 1.6 g
- KIDNEY_TOTAL [4]: 3.2 g
- LIVER [2]: 13.2 g
- LIVER [3]: 14.6 g
- LIVER [4]: 17.7 g
- A/G [2]: 1.6
- ALP [2]: 836.8 IU/L
- ALT [2]: 30.8 IU/L
- AST [2]: 58.4 IU/L
- BUN [2]: 18.4 mg/dL
- CRE [2]: 0.4 mg/dL
- Ca [2]: 10.2 mg/dL
- Cl [2]: 103.8 meq/L
- DBIL [2]: 0.064 mg/dL
- GLC [2]: 195.6 mg/dL
- IP [2]: 7.3 mg/dL
- K [2]: 4.8 meq/L
- LDH [2]: 74.6 IU/L
- Na [2]: 140 meq/L
- PL [2]: 153.4 mg/dL
- RALB [2]: 3.7 g/dL
- TBIL [2]: 0.3 mg/dL
- TC [2]: 74.2 mg/dL
- TG [2]: 129.4 mg/dL
- TP [2]: 6 g/dL
- gamma-GTP [2]: 2 IU/L
- A/G [3]: 2.3
- ALP [3]: 758.4 IU/L
- ALT [3]: 32 IU/L
- AST [3]: 62 IU/L
- BUN [3]: 19.8 mg/dL
- CRE [3]: 0.5 mg/dL
- Ca [3]: 10.7 mg/dL
- Cl [3]: 105.6 meq/L
- DBIL [3]: 0.052 mg/dL
- GLC [3]: 196.2 mg/dL
- IP [3]: 6.8 mg/dL
- K [3]: 4.7 meq/L
- LDH [3]: 68.6 IU/L
- Na [3]: 142 meq/L
- PL [3]: 146.2 mg/dL
- RALB [3]: 4.1 g/dL
- TBIL [3]: 0.3 mg/dL
- TC [3]: 68.8 mg/dL
- TG [3]: 111.6 mg/dL
- TP [3]: 5.8 g/dL
- gamma-GTP [3]: 1.4 IU/L
- A/G [4]: 1.8
- ALP [4]: 523.4 IU/L
- ALT [4]: 31.6 IU/L
- AST [4]: 55.6 IU/L
- BUN [4]: 21.2 mg/dL
- CRE [4]: 0.6 mg/dL
- Ca [4]: 10.2 mg/dL
- Cl [4]: 104.4 meq/L
- DBIL [4]: 0.02 mg/dL
- GLC [4]: 199.4 mg/dL
- IP [4]: 6 mg/dL
- K [4]: 4.6 meq/L
- LDH [4]: 74.8 IU/L
- Na [4]: 140.4 meq/L
- PL [4]: 141.2 mg/dL
- RALB [4]: 4 g/dL
- TBIL [4]: 0.3 mg/dL
- TC [4]: 69 mg/dL
- TG [4]: 157.2 mg/dL
- TP [4]: 6.2 g/dL
- gamma-GTP [4]: 1.8 IU/L
- TERMINAL_BW [5]: 240.4 g
- APTT [5]: 17.3 s
- Bas [5]: 0%
- Eos [5]: 1.6%
- Fbg [5]: 217.6 mg/dL
- Hb [5]: 14.2 g/dL
- Ht [5]: 42.2%
- Lym [5]: 75%
- MCH [5]: 21 pg
- MCHC [5]: 33.7%
- MCV [5]: 62.3 fL
- Mono [5]: 6.6%
- Neu [5]: 17.4%
- PT [5]: 11.5 s
- Plat [5]: 130.1 x10_4/uL
- RBC [5]: 677.6 x10_4/ul
- Ret [5]: 9.8%
- WBC [5]: 94.2 x10_2/uL
- KIDNEY_L [5]: 1.1 g
- KIDNEY_R [5]: 1.1 g
- KIDNEY_TOTAL [5]: 2.2 g
- LIVER [5]: 12.2 g
- A/G [5]: 1.8
- ALP [5]: 919.8 IU/L
- ALT [5]: 34.4 IU/L
- AST [5]: 60 IU/L
- BUN [5]: 18 mg/dL
- CRE [5]: 0.5 mg/dL
- Ca [5]: 10.7 mg/dL
- Cl [5]: 105.4 meq/L
- DBIL [5]: 0.008 mg/dL
- GLC [5]: 190.8 mg/dL
- IP [5]: 7.2 mg/dL
- K [5]: 4.6 meq/L
- LDH [5]: 84 IU/L
- Na [5]: 141.2 meq/L
- PL [5]: 152.6 mg/dL
- RALB [5]: 3.6 g/dL
- TBIL [5]: 0.2 mg/dL
- TC [5]: 80 mg/dL
- TG [5]: 100.4 mg/dL
- TP [5]: 5.6 g/dL
- gamma-GTP [5]: 2 IU/L
- TERMINAL_BW [6]: 280.6 g
- TERMINAL_BW [7]: 330.7 g
- TERMINAL_BW [8]: 406.9 g
- APTT [6]: 16.9 s
- Bas [6]: 0%
- Eos [6]: 1%
- Fbg [6]: 223.4 mg/dL
- Hb [6]: 13.9 g/dL
- Ht [6]: 41.1%
- Lym [6]: 71%
- MCH [6]: 21.2 pg
- MCHC [6]: 34%
- MCV [6]: 62.5 fL
- Mono [6]: 9.4%
- Neu [6]: 18.8%
- PT [6]: 11.5 s
- Plat [6]: 132.9 x10_4/uL
- RBC [6]: 657.4 x10_4/ul
- Ret [6]: 5%
- WBC [6]: 131.2 x10_2/uL
- APTT [7]: 16.8 s
- Bas [7]: 0%
- Eos [7]: 1.2%
- Fbg [7]: 223 mg/dL
- Hb [7]: 14.9 g/dL
- Ht [7]: 43.6%
- Lym [7]: 76.4%
- MCH [7]: 20.7 pg
- MCHC [7]: 34.1%
- MCV [7]: 60.6 fL
- Mono [7]: 4%
- Neu [7]: 18%
- PT [7]: 11.8 s
- Plat [7]: 125.2 x10_4/uL
- RBC [7]: 720.8 x10_4/ul
- Ret [7]: 4.5%
- WBC [7]: 124.4 x10_2/uL
- APTT [8]: 17.4 s
- Bas [8]: 0%
- Eos [8]: 1.4%
- Fbg [8]: 234.8 mg/dL
- Hb [8]: 15.5 g/dL
- Ht [8]: 45.4%
- Lym [8]: 74%
- MCH [8]: 19.8 pg
- MCHC [8]: 34.2%
- MCV [8]: 57.7 fL
- Mono [8]: 6%
- Neu [8]: 19.2%
- PT [8]: 11.7 s
- Plat [8]: 123.5 x10_4/uL
- RBC [8]: 785.8 x10_4/ul
- Ret [8]: 5.4%
- WBC [8]: 154 x10_2/uL
- KIDNEY_L [6]: 1.2 g
- KIDNEY_R [6]: 1.2 g
- KIDNEY_TOTAL [6]: 2.4 g
- KIDNEY_L [7]: 1.4 g
- KIDNEY_R [7]: 1.4 g
- KIDNEY_TOTAL [7]: 2.7 g
- KIDNEY_L [8]: 1.5 g
- KIDNEY_R [8]: 1.6 g
- KIDNEY_TOTAL [8]: 3.1 g
- LIVER [6]: 13.8 g
- LIVER [7]: 15 g
- LIVER [8]: 17.7 g
- A/G [6]: 1.6
- ALP [6]: 859.6 IU/L
- ALT [6]: 31.8 IU/L
- AST [6]: 57.2 IU/L
- BUN [6]: 20 mg/dL
- CRE [6]: 0.4 mg/dL
- Ca [6]: 10.4 mg/dL
- Cl [6]: 103.2 meq/L
- DBIL [6]: 0.078 mg/dL
- GLC [6]: 197.2 mg/dL
- IP [6]: 6.8 mg/dL
- K [6]: 5 meq/L
- LDH [6]: 95.2 IU/L
- Na [6]: 139.2 meq/L
- PL [6]: 143.6 mg/dL
- RALB [6]: 3.6 g/dL
- TBIL [6]: 0.3 mg/dL
- TC [6]: 71.8 mg/dL
- TG [6]: 119.6 mg/dL
- TP [6]: 5.9 g/dL
- gamma-GTP [6]: 2 IU/L
- A/G [7]: 2.3
- ALP [7]: 705.8 IU/L
